A short description of the data set: Pharmacokinetics (plasma and CSF) in infected monkeys after last DB844 dose.
[1] abbreviates: plasma, after the 14th oral dose of DB844 at 6 mg/kg, n = 7, geometric mean, analyte = label.

Each structure is given as a SMILES string.

Data on one molecule can be found in publication PMC3404106, “Pharmacology of DB844, an Orally Active aza Analogue of Pafuramidine, in a Monkey Model of Second Stage Human African Trypanosomiasis” (PLoS Neglected Tropical Diseases, 2012).

As usually defined, the half-life is the time needed for the level to fall by half in the phase considered. Lower therefore signals fast loss. The term CL/F denotes the apparent clearance, not corrected for the fraction that reaches the circulation. For orientation: Tmax means the time at which the peak concentration occurs. `CONC(=N)c1ccc(-c2ccc(-c3ccc(C(=N)NOC)cn3)o2)cc1` [DB844, N-methoxy-6-{5-[4-(N-methoxyamidino)phenyl]-furan-2-yl}-nicotinamidine]: where the note is “after last dose of DB844 6 mg/kg×14 days”, the “detection in CSF after the 1 h post dose sample” value is reported as “not detected thereafter”. Also, the concentration at 1 h (monkey, CSF, oral, 6 mg/kg) was found to be 17 nM. Also, the half-life by setting is: (monkey, in vivo, po, 6 mg/kg) 5.8 h; (monkey, plasma, po, 6 mg/kg) 5.76 h. The molecule also had a CL/F (monkey, plasma, po, 6 mg/kg) of 167 mL/min/kg. Besides, the Tmax is, setting by setting: (monkey, plasma, po, 6 mg/kg, Tmax, plasma, after the 14th oral dose of DB844 at 6 mg/kg, n = 7, median, analyte = label) 0.96 h; (monkey, plasma, po, 6 mg/kg, time of peak plasma concentration, after the last (14th) dose of DB844 at 6 mg/kg, analyte = label) 1 h. Also, under setting [1], the “AUC(0-∞)” value worked out at 70 nmol·days/L. Besides, the AUClast under setting [1] was 68 nmol·days/L.
